Here are results for 3 compounds from ChEMBL document CHEMBL4627396 (J Med Chem, 2020).

In one data set the target is T1, Cytochrome P450 1A2 (Homo sapiens, UniProt P05177).
T1 sequence (P05177 whole entry): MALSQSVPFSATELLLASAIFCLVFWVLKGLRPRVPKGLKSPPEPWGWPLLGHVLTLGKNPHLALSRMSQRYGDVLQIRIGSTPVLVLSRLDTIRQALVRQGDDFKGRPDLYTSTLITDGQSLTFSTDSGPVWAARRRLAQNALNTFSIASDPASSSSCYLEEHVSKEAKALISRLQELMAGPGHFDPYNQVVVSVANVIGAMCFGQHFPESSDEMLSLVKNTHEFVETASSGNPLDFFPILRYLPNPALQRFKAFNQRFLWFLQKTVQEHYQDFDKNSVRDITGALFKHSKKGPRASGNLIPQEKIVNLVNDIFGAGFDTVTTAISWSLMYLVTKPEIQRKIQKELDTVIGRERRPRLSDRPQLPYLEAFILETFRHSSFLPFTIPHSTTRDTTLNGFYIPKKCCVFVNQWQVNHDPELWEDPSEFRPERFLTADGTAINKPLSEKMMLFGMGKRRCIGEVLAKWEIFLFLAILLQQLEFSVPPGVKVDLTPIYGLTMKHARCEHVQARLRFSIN
Nature of the data set: Inhibition of CYP1A2 (unknown origin). The class given is ADME.

In data set [1] the target is T2, Receptor-interacting serine/threonine-protein kinase 4 (Homo sapiens, UniProt P57078).
T2 sequence (P57078 whole entry): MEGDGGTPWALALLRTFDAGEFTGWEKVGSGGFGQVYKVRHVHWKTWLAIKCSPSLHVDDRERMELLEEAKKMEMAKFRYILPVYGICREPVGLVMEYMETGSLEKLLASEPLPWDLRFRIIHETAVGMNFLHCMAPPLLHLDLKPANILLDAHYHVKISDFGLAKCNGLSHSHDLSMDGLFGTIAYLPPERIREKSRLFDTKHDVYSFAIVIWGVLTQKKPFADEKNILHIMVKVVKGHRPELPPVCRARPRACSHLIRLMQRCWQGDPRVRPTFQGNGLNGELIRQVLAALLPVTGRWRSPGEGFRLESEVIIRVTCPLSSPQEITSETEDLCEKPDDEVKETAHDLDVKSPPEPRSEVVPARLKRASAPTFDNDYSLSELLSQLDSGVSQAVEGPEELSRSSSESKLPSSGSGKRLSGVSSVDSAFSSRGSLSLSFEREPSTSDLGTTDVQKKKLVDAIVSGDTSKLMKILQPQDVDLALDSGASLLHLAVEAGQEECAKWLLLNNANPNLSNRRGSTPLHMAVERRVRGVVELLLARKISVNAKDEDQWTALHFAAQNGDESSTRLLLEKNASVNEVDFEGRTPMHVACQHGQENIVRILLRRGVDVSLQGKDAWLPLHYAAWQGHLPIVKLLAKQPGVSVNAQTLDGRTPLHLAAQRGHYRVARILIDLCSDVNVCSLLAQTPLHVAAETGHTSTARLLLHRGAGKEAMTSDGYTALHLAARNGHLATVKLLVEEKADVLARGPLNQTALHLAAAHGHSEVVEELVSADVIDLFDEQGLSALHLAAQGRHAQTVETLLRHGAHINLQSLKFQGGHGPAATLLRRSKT

A short description of data set [2]: Drug metabolism in human hepatocytes assessed per million cells. The class given is ADME, cell-based, Hepatocyte.
Data set [3] deals with Mitogen-activated protein kinase kinase kinase 11 (Homo sapiens, UniProt Q16584).
Sequence of Mitogen-activated protein kinase kinase kinase 11 (Q16584 whole entry): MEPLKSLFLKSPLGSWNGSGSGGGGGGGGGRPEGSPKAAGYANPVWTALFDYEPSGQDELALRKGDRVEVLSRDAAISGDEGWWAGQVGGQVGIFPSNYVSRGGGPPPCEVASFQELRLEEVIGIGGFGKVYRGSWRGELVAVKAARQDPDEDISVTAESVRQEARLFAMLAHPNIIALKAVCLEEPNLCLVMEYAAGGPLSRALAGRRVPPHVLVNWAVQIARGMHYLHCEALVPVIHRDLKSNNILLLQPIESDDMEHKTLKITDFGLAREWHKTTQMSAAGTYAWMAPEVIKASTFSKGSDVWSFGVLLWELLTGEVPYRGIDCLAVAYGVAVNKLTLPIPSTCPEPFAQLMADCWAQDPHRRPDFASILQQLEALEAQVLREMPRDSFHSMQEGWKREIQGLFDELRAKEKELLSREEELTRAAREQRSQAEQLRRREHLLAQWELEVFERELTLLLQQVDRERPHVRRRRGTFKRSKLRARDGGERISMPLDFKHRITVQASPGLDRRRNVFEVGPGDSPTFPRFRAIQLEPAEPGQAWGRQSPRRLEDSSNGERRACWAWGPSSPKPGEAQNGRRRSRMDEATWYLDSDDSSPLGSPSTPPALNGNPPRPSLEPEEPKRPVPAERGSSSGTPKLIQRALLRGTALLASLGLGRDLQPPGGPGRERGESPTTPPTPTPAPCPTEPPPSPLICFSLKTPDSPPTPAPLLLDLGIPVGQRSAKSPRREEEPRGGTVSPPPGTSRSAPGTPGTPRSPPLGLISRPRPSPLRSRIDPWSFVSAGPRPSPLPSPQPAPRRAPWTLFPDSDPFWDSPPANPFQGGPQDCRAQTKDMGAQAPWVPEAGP
A short description of data set [4]: Drug metabolism in rat microsomes. It counts as ADME, Microsome. The settings on record: read-out: Drug metabolism.
The nature of the next data set: in vivo. The settings on record: Crl:CD Sprague-Dawley, rat, iv, 1 mg/kg.
Data set [5] can be described thus: Toxicity in NSG mouse assessed as adverse effect at 40 mg/kg administered once daily for 21 days. It counts as organism-based. The settings on record: in vivo.
In another data set the target is Cytochrome P450 2D6 (Homo sapiens, UniProt P10635). Nature of the data set: Inhibition of CYP2D6 (unknown origin). It counts as ADME.
Sequence of Cytochrome P450 2D6 (P10635 whole entry): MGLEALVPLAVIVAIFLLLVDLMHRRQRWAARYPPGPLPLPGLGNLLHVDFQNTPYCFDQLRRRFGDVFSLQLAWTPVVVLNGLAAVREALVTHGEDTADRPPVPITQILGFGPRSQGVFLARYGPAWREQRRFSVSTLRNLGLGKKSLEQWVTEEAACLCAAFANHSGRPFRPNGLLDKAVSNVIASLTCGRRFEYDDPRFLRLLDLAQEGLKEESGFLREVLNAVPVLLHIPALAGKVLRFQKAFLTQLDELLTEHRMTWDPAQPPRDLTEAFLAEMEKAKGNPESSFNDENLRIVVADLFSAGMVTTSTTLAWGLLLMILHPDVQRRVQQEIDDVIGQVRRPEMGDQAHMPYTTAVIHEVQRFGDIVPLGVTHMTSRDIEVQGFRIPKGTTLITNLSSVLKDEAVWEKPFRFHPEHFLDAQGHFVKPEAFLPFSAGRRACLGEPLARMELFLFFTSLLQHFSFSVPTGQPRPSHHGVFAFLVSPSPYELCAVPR
Data set [6] can be described thus: Drug metabolism in mouse microsomes. As to conditions: read-out: Drug metabolism. The class given is ADME, Microsome.
Data set [7] has as its target Phosphatidylinositol 4-phosphate 5-kinase type-1 gamma (Homo sapiens, UniProt O60331).
Another data set concerns the target Cytochrome P450 3A4 (Homo sapiens, UniProt P08684). Nature of the data set: Inhibition of CYP3A4 (unknown origin). It counts as ADME.
For data set [8], the target named is T3, Dual specificity mitogen-activated protein kinase kinase 5 (Homo sapiens, UniProt Q13163).
T3 sequence (Q13163 whole entry): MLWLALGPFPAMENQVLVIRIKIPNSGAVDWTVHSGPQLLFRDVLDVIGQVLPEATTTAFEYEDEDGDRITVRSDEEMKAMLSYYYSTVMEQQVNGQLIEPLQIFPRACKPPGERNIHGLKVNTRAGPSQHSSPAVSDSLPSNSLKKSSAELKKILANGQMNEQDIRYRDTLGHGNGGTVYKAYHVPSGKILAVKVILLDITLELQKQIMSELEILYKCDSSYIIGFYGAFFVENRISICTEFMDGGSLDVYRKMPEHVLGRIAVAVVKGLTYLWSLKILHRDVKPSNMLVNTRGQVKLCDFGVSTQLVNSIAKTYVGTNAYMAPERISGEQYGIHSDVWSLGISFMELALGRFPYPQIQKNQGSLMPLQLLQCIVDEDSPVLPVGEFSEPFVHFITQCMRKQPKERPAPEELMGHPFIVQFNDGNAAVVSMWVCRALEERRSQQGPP

Data set [9] has as its target T4, Tyrosine-protein kinase SYK (Homo sapiens, UniProt P43405).
The target of data set [10] is Calcium/calmodulin-dependent protein kinase type 1D (Homo sapiens) (UniProt Q8IU85).
Sequence of Calcium/calmodulin-dependent protein kinase type 1D (Homo sapiens) (Q8IU85 whole entry, looked up): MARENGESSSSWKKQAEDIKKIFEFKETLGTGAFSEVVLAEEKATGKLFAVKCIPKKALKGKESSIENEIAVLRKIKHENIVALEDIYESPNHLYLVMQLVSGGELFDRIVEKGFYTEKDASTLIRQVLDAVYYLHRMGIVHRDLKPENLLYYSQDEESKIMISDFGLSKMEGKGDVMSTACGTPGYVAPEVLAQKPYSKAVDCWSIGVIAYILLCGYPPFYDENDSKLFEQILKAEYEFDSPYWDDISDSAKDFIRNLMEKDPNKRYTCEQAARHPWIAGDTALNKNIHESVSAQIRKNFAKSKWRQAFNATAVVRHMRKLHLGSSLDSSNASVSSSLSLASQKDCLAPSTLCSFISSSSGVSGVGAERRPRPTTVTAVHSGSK
Data set [11] concerns the target Death-associated protein kinase 3 (Homo sapiens) (UniProt O43293). As to conditions: 10 uM.
Data set [12] has as its target T4, Tyrosine-protein kinase SYK. As to conditions: 10 uM.
Data set [13] has as its target T5, Serine/threonine-protein kinase DCLK1 (Homo sapiens) (UniProt O15075).
T5 sequence (whole entry): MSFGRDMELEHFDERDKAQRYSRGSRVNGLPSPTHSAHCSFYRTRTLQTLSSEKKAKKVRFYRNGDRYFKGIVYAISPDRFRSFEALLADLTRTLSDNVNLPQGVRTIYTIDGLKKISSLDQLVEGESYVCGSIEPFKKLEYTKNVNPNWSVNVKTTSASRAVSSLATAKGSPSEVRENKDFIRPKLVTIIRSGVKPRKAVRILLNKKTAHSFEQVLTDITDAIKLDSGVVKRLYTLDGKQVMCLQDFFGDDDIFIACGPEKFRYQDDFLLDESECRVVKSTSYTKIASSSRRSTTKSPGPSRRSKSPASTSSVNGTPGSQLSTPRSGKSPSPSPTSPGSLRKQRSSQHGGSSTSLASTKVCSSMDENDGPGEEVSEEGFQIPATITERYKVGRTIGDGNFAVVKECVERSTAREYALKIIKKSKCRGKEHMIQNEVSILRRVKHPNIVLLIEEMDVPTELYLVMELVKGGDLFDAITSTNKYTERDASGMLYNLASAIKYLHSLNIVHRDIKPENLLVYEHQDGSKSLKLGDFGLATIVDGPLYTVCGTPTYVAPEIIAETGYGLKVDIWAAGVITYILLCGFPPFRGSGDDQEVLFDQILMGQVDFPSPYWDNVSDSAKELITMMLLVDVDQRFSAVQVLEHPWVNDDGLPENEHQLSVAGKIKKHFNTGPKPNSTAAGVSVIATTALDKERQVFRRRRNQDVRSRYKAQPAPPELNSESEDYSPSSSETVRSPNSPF
As to conditions: 10 uM.

Data set [14] addresses Glycogen synthase kinase-3 beta (Homo sapiens) (UniProt P49841). As to conditions: 10 uM.
In data set [15] the target is T6, Calcium/calmodulin-dependent protein kinase type IV (Homo sapiens) (UniProt Q16566).
T6 sequence (whole entry): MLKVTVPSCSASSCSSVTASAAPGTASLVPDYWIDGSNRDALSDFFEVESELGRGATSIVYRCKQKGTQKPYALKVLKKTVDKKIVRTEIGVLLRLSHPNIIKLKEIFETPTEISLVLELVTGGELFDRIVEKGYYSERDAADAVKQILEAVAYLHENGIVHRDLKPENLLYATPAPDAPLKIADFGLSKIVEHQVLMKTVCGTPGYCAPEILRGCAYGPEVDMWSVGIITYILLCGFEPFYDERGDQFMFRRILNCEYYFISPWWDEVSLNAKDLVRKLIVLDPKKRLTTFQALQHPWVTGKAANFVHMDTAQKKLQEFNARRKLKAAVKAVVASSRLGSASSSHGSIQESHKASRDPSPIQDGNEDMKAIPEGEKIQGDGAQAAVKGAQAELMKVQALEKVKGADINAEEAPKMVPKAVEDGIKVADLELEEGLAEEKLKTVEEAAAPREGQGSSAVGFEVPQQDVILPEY
The settings on record: 10 uM.

In data set [16] the test system is Mus musculus. The data set can be described thus: Antidiabetic activity in diet induced obese C57Bl/6J mouse model assessed as reduction in baseline blood glucose level at 25 mg/kg, po administered twice daily for 14 days followed by glucose challenge at 4 hrs post last dose and measured after 10 to 90 mins by OGTT. It counts as functional, organism-based.
A short description of data set [17]: Drug metabolism in rat hepatocytes assessed per million cells. The class given is ADME, cell-based, Hepatocyte.
The test system of data set [18] is Mus musculus. The data set can be described thus: Antidiabetic activity in diet induced obese C57Bl/6J mouse model assessed as reduction in blood glucose level at 25 to 50 mg/kg, po administered 4 hrs prior to glucose stimulation and measured after 10 to 90 mins by OGTT. It counts as functional, organism-based.
Data set [19] in a line: Drug metabolism in rat plasma assessed as oxidation. The class given is ADME, cell-free.
Data set [20] concerns Mus musculus. The data set can be described thus: Antidiabetic activity in diet induced obese C57Bl/6J mouse model assessed as reduction in plasma insulin level at 25 to 50 mg/kg, po administered 4 hrs prior to glucose stimulation and measured after 10 to 90 mins by OGTT. The class given is functional, organism-based.
Data set [21] can be described thus: Toxicity in diet induced obese C57Bl/6J mouse model assessed as bloating of gastrointestinal tract at 50 mg/kg, po administered twice daily for 14 days. The class given is organism-based. The settings on record: in vivo.
Data set [22] deals with Mus musculus. The data set can be described thus: Antidiabetic activity in diet induced obese C57Bl/6J mouse model assessed as reduction in plasma insulin level at 25 mg/kg, po administered twice daily for 14 days followed by glucose challenge at 4 hrs post last dose and measured after 10 to 90 mins by OGTT. It counts as functional, organism-based.
For data set [23], the system named is Mus musculus. The data set can be described thus: Antidiabetic activity in diet induced obese C57Bl/6J mouse model assessed as reduction in peak blood glucose level at 25 mg/kg, po administered twice daily for 14 days followed by glucose challenge at 4 hrs post last dose and measured after 10 to 90 mins by OGTT. It counts as functional, organism-based.
A short description of data set [24]: Drug metabolism in rat plasma assessed as amide hydrolysis. The class given is ADME, cell-free.
Data set [25] can be described thus: Drug metabolism in human microsomes. The class given is ADME, Microsome. The settings on record: read-out: Drug metabolism.
The nature of data set [26]: Drug metabolism in rat plasma assessed as acetylation. The class given is ADME, cell-free.
Data set [27] has as its system Mus musculus. The data set can be described thus: Antidiabetic activity in diet induced obese C57Bl/6J mouse model assessed as change in blood glucose AUC at 25 mg/kg, po administered twice daily for 14 days followed by glucose challenge at 4 hrs post last dose and measured after 10 to 90 mins by OGTT. It counts as functional, organism-based.
Data set [28] can be described thus: Drug excretion in Crl:CD Sprague-Dawley rat urine. It counts as ADME. The settings on record: in vivo.

The structures appear in SMILES notation. Active and inactive are the calls of the source. The rule behind the calls is not given here.

Sequence of Cytochrome P450 3A4 (P08684 whole entry): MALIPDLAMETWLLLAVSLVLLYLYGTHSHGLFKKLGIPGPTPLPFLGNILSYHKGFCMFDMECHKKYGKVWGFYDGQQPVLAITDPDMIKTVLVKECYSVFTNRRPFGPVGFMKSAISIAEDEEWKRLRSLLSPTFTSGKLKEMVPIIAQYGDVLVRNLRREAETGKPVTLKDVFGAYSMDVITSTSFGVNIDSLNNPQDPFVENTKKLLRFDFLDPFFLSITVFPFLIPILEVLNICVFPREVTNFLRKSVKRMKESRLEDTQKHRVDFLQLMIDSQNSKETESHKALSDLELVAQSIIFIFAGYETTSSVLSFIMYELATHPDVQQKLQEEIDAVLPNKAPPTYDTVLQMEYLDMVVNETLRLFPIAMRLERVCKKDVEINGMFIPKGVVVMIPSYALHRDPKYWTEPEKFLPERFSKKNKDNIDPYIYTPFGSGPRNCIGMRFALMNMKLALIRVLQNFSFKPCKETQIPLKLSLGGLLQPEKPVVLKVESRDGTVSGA
Sequence of Death-associated protein kinase 3 (Homo sapiens) (O43293 whole entry, looked up): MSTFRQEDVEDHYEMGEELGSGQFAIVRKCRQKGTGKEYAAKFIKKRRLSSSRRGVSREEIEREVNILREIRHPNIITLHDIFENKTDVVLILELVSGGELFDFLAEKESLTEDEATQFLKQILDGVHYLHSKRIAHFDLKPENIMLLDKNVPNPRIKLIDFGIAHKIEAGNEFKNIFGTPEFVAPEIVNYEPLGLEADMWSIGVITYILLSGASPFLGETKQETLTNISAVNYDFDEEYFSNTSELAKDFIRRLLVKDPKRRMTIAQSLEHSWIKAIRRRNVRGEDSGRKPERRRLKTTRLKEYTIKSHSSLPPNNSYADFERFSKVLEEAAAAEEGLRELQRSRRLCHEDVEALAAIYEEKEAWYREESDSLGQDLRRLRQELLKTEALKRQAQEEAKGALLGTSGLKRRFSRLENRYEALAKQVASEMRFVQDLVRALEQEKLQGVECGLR
Sequence of Phosphatidylinositol 4-phosphate 5-kinase type-1 gamma (O60331 whole entry): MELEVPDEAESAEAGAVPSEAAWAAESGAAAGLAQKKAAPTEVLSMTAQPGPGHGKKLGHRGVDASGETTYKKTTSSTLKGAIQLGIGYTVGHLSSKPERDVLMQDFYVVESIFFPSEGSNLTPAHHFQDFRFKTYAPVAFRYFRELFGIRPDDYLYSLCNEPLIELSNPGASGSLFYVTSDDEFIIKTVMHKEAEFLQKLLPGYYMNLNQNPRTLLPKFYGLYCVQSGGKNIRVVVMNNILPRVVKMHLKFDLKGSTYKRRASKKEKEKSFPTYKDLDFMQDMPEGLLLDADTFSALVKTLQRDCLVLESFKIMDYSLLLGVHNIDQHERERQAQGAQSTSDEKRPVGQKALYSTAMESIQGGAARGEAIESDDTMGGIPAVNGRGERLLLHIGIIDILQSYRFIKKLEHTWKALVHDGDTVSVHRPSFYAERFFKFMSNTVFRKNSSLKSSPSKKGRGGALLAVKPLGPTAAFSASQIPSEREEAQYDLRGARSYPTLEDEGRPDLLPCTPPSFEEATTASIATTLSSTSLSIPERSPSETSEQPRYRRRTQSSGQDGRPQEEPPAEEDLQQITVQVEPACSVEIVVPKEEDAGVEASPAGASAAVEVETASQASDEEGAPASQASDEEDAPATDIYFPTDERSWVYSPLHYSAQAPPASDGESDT
Sequence of Glycogen synthase kinase-3 beta (Homo sapiens) (P49841 whole entry, looked up): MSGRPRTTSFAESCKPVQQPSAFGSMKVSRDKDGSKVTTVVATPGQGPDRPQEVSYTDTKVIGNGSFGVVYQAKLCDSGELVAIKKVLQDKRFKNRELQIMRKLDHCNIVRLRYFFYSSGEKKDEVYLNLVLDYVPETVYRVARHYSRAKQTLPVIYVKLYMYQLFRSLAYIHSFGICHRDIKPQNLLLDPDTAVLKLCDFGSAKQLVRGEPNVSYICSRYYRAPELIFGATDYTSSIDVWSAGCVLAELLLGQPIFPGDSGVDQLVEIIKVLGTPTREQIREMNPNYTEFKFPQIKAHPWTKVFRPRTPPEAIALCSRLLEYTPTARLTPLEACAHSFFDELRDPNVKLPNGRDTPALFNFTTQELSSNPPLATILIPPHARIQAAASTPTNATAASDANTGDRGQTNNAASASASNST

Usually IC50 stands for the point on the concentration scale where inhibition reaches its midpoint. Low readings indicate greater potency, high ones weaker potency. As usually defined, the Vd is the apparent volume that relates the amount in the body to the concentration in plasma or blood. For `CC(C)c1cc(Nc2nc(N3CCC[C@H](N)C3)ncc2C(N)=O)cc(C(C)C)n1`, the 50% inhibitory concentration (IC50) on Cytochrome P450 1A2 was > 20 µM; in data set [1], 5.69 µM; in data set [3], 2750 nM; on Cytochrome P450 2D6, > 20 µM; in data set [7], 11.2 µM; against Cytochrome P450 3A4, > 20 µM. For the same compound, the half-maximal inhibitory concentration (IC50) in data set [8] was determined as 25 nM. For the same compound, the Drug metabolism in data set [2] worked out at 19 µL/min. Besides, the microsomal CLint in data set [4] stood at 3 µL/min/mg; in [6], 6 µL/min/mg. This compound came in with a Vd in the data set “in vivo” of 18.5 L/kg. Also, the Activity result in data set [5] is reported as “Non-Toxic”.

A word on the ΔTm: it is the shift of the melting midpoint relative to a reference. In data set [9], `NCCNc1ncc(C(N)=O)c(Nc2cccc(C(F)(F)F)c2)n1` came in with an IC50 of 7 nM. The ΔTm worked out at 5.44 °C in data set [10]; 4.05 °C in data set [11]; 7.51 °C in [12]; 0.11 °C in data set [13]; 3.4 °C in [14]; 1.34 °C in data set [15].

In the case of `CC(C)(C#N)c1cc(Nc2nc(N3CCC[C@H](N)C3)ncc2C(N)=O)cc(C(C)(C)C#N)c1`, the result in the data set with Mus musculus [16], with Mus musculus [18], in the data set with Mus musculus [20], in the data set on Mus musculus [22] and in the data set on Mus musculus [23] was Active. For the same compound, the Drug metabolism is 11 µL/min in [17], “Metabolite_Detected” in data set [19], “Metabolite_Detected” in data set [24] and “Metabolite_Detected” in [26]. Further, the IC50 at Cytochrome P450 1A2, on Cytochrome P450 2D6 and on Cytochrome P450 3A4 was > 20 µM in each case. Also, the results for the microsomal CLint in data set [4] and in [25] were < 1 µL/min/mg and 13 µL/min/mg, respectively. The Activity entry in data set [21] is given as “Toxic”. In the data set with Mus musculus [27], the outcome was inactive. In addition, the Drug excretion entry in data set [28] was “Metabolite_Detected”.
